These results are taken from patent US10710986B2, “PD-1/PD-L1 inhibitors” (Gilead Sciences, Inc., priority 2018, dated 2020).

The assay has as its target PD-1/PD-L1 (Homo sapiens (Human), UniProt Q9NZQ7). Description: PD-1/PD-L1 biochemical protein-protein interaction assay (ALPHA). The following applies: 0.3 nM His tagged PD-L1, 2.5 nM biotinylated Fc-PD-1, 60 minutes at 25° C., read-out: IC50 PD-L1-PD1.

PD-1/PD-L1, sequence (Q9NZQ7 19-238): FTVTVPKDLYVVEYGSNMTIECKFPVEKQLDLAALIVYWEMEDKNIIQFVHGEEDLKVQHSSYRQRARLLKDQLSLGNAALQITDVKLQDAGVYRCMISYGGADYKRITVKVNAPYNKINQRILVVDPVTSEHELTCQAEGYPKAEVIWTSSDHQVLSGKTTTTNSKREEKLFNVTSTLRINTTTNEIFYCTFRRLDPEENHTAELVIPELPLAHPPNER

By IC50 is commonly meant the concentration at which inhibition is half-maximal. With `COc1nc(-c2cccc(-c3cccc(-c4cnc(CNC5CC(CC(N)=O)C5)c(OC)n4)c3Cl)c2Cl)cnc1CNC[C@@H]1CCC(=O)N1` (some centres unmarked) [compound 217], the IC50 was determined as 0.14 nM. With `COc1nc(-c2cccc(-c3cccc(-c4cnc(CNCC5(S(C)(=O)=O)CC5)c(OC)n4)c3Cl)c2Cl)cnc1CNC[C@@H]1CCC(=O)N1` [compound 218] the figure was 0.14 nM; with `COc1nc(-c2cccc(-c3cccc(-c4cnc(CNC[C@@H]5C[C@H]5c5cccnc5)c(OC)n4)c3Cl)c2Cl)cnc1CNC[C@@H]1CCC(=O)N1` [compound 219], 0.19 nM; with `COc1nc(-c2cccc(-c3cccc(-c4cnc(CNC[C@@H]5CCC(=O)N5)c(OC)n4)c3Cl)c2Cl)cnc1CNCC1CC1CC#N` (some centres unmarked) [compound 220], 0.36 nM. The result for `COC[C@H]1C[C@@H](NCc2ncc(-c3cccc(-c4cccc(-c5cnc(CNC[C@@H]6CCC(=O)N6)c(OC)n5)c4Cl)c3Cl)nc2OC)C1` [compound 221] reads 0.227 nM. `COc1nc(-c2cccc(-c3cccc(-c4cnc(CNC5CCC([S+](C)[O-])C5)c(OC)n4)c3Cl)c2Cl)cnc1CNC[C@@H]1CCC(=O)N1` (some centres unmarked) [compound 222]: the IC50 stood at 0.291 nM. For `COc1nc(-c2cccc(-c3cccc(-c4cnc(CN[C@@H]5CCOC[C@H]5C)c(OC)n4)c3Cl)c2Cl)cnc1CNC[C@@H]1CCC(=O)N1` [compound 223], the IC50 was 0.584 nM.

In the case of `COc1nc(-c2cccc(-c3cccc(-c4cnc(CN5C[C@@H](OC)C[C@H]5CO)c(OC)n4)c3Cl)c2Cl)cnc1CNC[C@@H]1CCC(=O)N1` [compound 224], the IC50 is 0.393 nM. `COCCC1CN(Cc2ncc(-c3cccc(-c4cccc(-c5cnc(CNC[C@@H]6CCC(=O)N6)c(OC)n5)c4Cl)c3Cl)nc2OC)C1` [compound 225]: the half-inhibitory concentration (IC50) was 0.288 nM.

Regarding `CC[C@@H]1OCC[C@H]1NCc1ncc(-c2cccc(-c3cccc(-c4cnc(CNC[C@@H]5CCC(=O)N5)c(OC)n4)c3Cl)c2Cl)nc1OC` [compound 226], the IC50 was found to be 0.474 nM.

As to `COc1nc(-c2cccc(-c3cccc(-c4cnc(CNC[C@@H]5CCC(=O)N5)c(OC)n4)c3Cl)c2Cl)cnc1CNCC1CCN(C(C)=O)C1` (some centres unmarked) [compound 227], the IC50 came to 0.136 nM. In the case of `COc1nc(-c2cccc(-c3cccc(-c4cnc(CNC[C@H]5C[C@@H](OC)C5)c(OC)n4)c3Cl)c2Cl)cnc1CNC[C@@H]1CCC(=O)N1` [compound 228], the IC50 came to 0.168 nM. The result for `COc1nc(-c2cccc(-c3cccc(-c4cnc(CN5CC[C@@H](C)[C@@H](O)C5)c(OC)n4)c3Cl)c2Cl)cnc1CNC[C@@H]1CCC(=O)N1` [compound 229] reads 0.229 nM. As to `COc1nc(-c2cccc(-c3cccc(-c4cnc(CN5C[C@@H]6CCC[C@]6(CO)C5)c(OC)n4)c3Cl)c2Cl)cnc1CNC[C@@H]1CCC(=O)N1` [compound 230], the IC50 worked out at 0.331 nM. The result for `COc1nc(-c2cccc(-c3cccc(-c4cnc(CN5CC[C@@H](O)[C@H](C)C5)c(OC)n4)c3Cl)c2Cl)cnc1CNC[C@@H]1CCC(=O)N1` [compound 231] reads 0.064 nM; that for `COc1nc(-c2cccc(-c3cccc(-c4cnc(CN5CCC6(CCOC6=O)C5)c(OC)n4)c3Cl)c2Cl)cnc1CNC[C@@H]1CCC(=O)N1` (some centres unmarked) [compound 232], 0.312 nM; that for `CCO[C@H]1C[C@H](NCc2ncc(-c3cccc(-c4cccc(-c5cnc(CNC[C@@H]6CCC(=O)N6)c(OC)n5)c4Cl)c3Cl)nc2OC)C1` [compound 233], 0.451 nM. The result for `COc1nc(-c2cccc(-c3cccc(-c4cnc(CN5CC6(CCOC6)C5)c(OC)n4)c3Cl)c2Cl)cnc1CNC[C@@H]1CCC(=O)N1` [compound 234] reads 0.088 nM; that for `COc1nc(-c2cccc(-c3cccc(-c4cnc(CNC[C@@H]5CCC(=O)N5)c(OC)n4)c3Cl)c2Cl)cnc1CNCCC1CNC(=O)C1` (some centres unmarked) [compound 235], 0.106 nM. With `COc1nc(-c2cccc(-c3cccc(-c4cnc(CNC[C@@H]5CCC(=O)N5)c(OC)n4)c3Cl)c2Cl)cnc1CNCCC1CCCO1` (some centres unmarked) [compound 236] the figure was 0.064 nM.
